Source: patent US20180200279A1, “INHIBITION OF HSV-1-ASSOCIATED CORNEAL NEOVASCULARIZATION USING INHIBITORS OF CYCLIN-DEPENDENT KINASE 9” (XAVIER UNIVERSITY OF LOUISIANA, priority 2014, published 2018)

How the values were obtained:
[1] = test system: chick embryo chorioallantoic membrane; experiment: Ex ovo chick chorioallantoic membrane (CAM) collagen onplant angiogenesis assay; assay type: in vivo; settings: 100 nM flavopiridol in bFGF/VEGF-containing collagen plugs; 3 days
Text: After 3 days, CAMs were photographed, and angiogenesis was quantified by counting the number of grids positive for new blood vessel growth in a blinded manner. Results are expressed as number of grids positive for blood vessels and as percent positive grids.

[2] = test system: HSV-1 17syn+ ocular infection; experiment: HSV-1 ocular infection mouse model, H&E histology of eyes (leukocytic infiltration, peripheral neovascularization); assay type: in vivo, Balb/c mice; settings: day 25 PI
Experimental: Histological score (0-1) was calculated based on leukocytic infiltration and peripheral neovascularization of hematoxylin & eosin (H&E) stained slides of mouse eyes on day 25 PI.
All experimental procedures were performed in accordance with the ARVO Resolution for the Use of Animals in Ophthalmic and Vision Research and were approved by the Xavier University Animal Care and Use Committee. Female 20 g Balb/c mice were obtained from Charles River Laboratories. Mice were allowed to equilibrate to their surroundings for 2 weeks and then were anesthetized by intramuscular administration of xylazine (6.6 mg/kg of body weight) and ketamine (100 mg/kg of body weight). The corneas were mildly scarified in a 2×2 cross-hatch pattern and each cornea was inoculated with 5×10^5 PFU of strain HSV 17syn+. […] DNA was collected by swabbing the eyes with filter paper, and the eyes were examined with a slit-lamp on PI days 2, 4, 7, 9, 11, 14, 18 and 25. Average neovascularization/eye was scored using the formula A=(C×0.4×L×π)/2 where C=clock hours of neovascularization; 30° arc is 1 (360° circle with a total of 12); L is the length of the longest neovessel, and A is the area of neovascularization. Students scored (by eye) the animals on the days indicated in a masked fashion using the slit-lamp, and images representative of each group were taken. Clinical scores based on epiphora, inflammation and discharge were calculated where 0=no manifestations, +1=slight manifestations, +2=moderate manifestations, and +3=severe manifestations. Mice were sacrificed with CO2 on day 25 post-infection, and eyes were harvested, sectioned, stained with hematoxylin and eosin (H&E) for histological analysis based on peripheral neovascularization and leukocytic infiltration where 0=clear eyes, 0.5=either peripheral neovascularization or leukocytic infiltration, and 1=both peripheral neovascularization and leukocytic infiltration. Ex ovo chick embryo chorioallantoic membrane collagen angiogenesis assays were performed using methods as previously described (Deryugina E I and Quigley J P. Chapter 2. Chick embryo chorioallantoic membrane models to quantify angiogenesis induced by inflammatory and tumor cells or purified effector molecules. Methods Enzymol. 444:21-41. 2008). Briefly, fertilized embryos (Charles River Laboratories, Charleston, S.C.) were incubated at 37.5° C. for 3 days, removed from their shell using a Dremel tool and placed into a covered weighing boat for 7 further days of incubation. […] Four collagen onplants were added per egg on at least 3 separate eggs. After three additional days of incubation, images were taken of each plug using a mini-Vid camera (LW Scientific; Lawrenceville, Ga.) and quantified in a masked fashion based on the percentage of grids that were positive for newly formed blood vessels.
To confirm the results in FIGS. 1A and 1B, sections of one cornea from each mouse was sectioned, stained with H&E and analyzed for leukocytic infiltrate and peripheral neovascularization of the cornea.

HSV-1 17syn+ = experiment: Real-time PCR of HSV-1 DNA on ocular swabs of infected mice; assay type: in vivo, Balb/c mice; settings: day 25 post infection; 1% TFT, 0.01% flavopiridol, 0.1% DRB drops; n=10
Experimental: SYBR Green semi-quantitative real-time PCR was performed on DNA samples eluted from swabs taken from mouse eyes on days 2, 4, 7, 9, 11, 14, 18 and 25 post infection with 5×10^5 PFU/eye HSV-1 17syn+ using primers specific for HSV-1 DNA polymerase.
All experimental procedures were performed in accordance with the ARVO Resolution for the Use of Animals in Ophthalmic and Vision Research and were approved by the Xavier University Animal Care and Use Committee. Female 20 g Balb/c mice were obtained from Charles River Laboratories. Mice were allowed to equilibrate to their surroundings for 2 weeks and then were anesthetized by intramuscular administration of xylazine (6.6 mg/kg of body weight) and ketamine (100 mg/kg of body weight). The corneas were mildly scarified in a 2×2 cross-hatch pattern and each cornea was inoculated with 5×10^5 PFU of strain HSV 17syn+. […] DNA was collected by swabbing the eyes with filter paper, and the eyes were examined with a slit-lamp on PI days 2, 4, 7, 9, 11, 14, 18 and 25. Average neovascularization/eye was scored using the formula A=(C×0.4×L×π)/2 where C=clock hours of neovascularization; 30° arc is 1 (360° circle with a total of 12); L is the length of the longest neovessel, and A is the area of neovascularization. Students scored (by eye) the animals on the days indicated in a masked fashion using the slit-lamp, and images representative of each group were taken. Clinical scores based on epiphora, inflammation and discharge were calculated where 0=no manifestations, +1=slight manifestations, +2=moderate manifestations, and +3=severe manifestations. […] Ex ovo chick embryo chorioallantoic membrane collagen angiogenesis assays were performed using methods as previously described (Deryugina E I and Quigley J P. Chapter 2. Chick embryo chorioallantoic membrane models to quantify angiogenesis induced by inflammatory and tumor cells or purified effector molecules. Methods Enzymol. 444:21-41. 2008). […]

[3] = Ocular safety and tolerability of the formulation, mouse eyes; assay type: in vivo; settings: dose and frequency of the HSV-1 corneal neovascularization study
Experimental: (§1) This was assessed with the dose and frequency that was used in the chemotherapeutic study of HSV-1 corneal neovascularization. FIG. 1A presents the results of slit-lamp examination (SLE) scores of the corneas of the four treatment groups beginning on post-inoculation day 2 and continuing to 25 days following infection.

HUVEC = experiment: In vitro tubule formation assay; assay type: cell-based, human; settings: 25 ng/mL bFGF and VEGF
Experimental: The number of circular tubular structures formed by HUVEC under conditions of serum starvation followed by treatment with 25 ng/mL bFGF and VEGF and with 0-200 nM FP were quantitatively analyzed. Manual counting at low power fields was used to quantitate tubular structures and percentage of inhibition was expressed using VEGF control wells as 100%.
Growth factor-reduced Geltrex (Life Technologies, Grand Island, N.Y.) was thawed overnight on ice. Each well of 96-well plated was coated at […] with 50 μL Geltrex and incubated at 37° C. for 30 min. […] After 12-16 hours, tubule formation was assessed with an inverted photomicroscope and the images were photographed using Olympus U-RLF-T microscope. Manual counting at low power fields was used to quantitate tubular structures and percentage of inhibition was expressed using VEGF control wells as 100%. Results represent one triplicate repeat of three independent experiments with similar results.
Following migration from the vessel of origin and invasion through the ECM, ECs form capillary tubules. […] The number of circular nodes surrounded by tubular structures was quantitatively analyzed in a masked fashion.

[4] = Ocular safety and tolerability of the formulation, rabbit eyes; assay type: in vivo; settings: dose and frequency of the HSV-1 corneal neovascularization study
Experimental: as §1

## CN1CC[C@H](c2c(O)cc(O)c3c(=O)cc(-c4ccccc4Cl)oc23)[C@H](O)C1 [flavopiridol]
[1]
  angiogenesis: grids positive for newly formed blood vessels: 14.33±2.10
[2]; H&E sections
  mouse eyes exhibiting corneal neovascularization: 0%
  mouse eyes exhibiting leukocytic infiltration: 0%
[2]; H&E stained corneal sections
  histological score (scale 0-1) for leukocytic infiltrate and peripheral neovascularization: 0.125±0.125
HSV-1 17syn+
  quantitative real-time PCR score (HSV-1 DNA) on ocular swabs: 0.039±0.176
[3]
  safety and tolerability of the formulation in the eye: safe and well-tolerated
HUVEC; 50 nM flavopiridol, not statistically different from control
  tubular structures, VEGF control wells as 100%: 114.7±7.17
HUVEC; 100 nM flavopiridol, not statistically different from control
  tubular structures, VEGF control wells as 100%: 97.67±5.36
HUVEC; 150 nM flavopiridol, significantly reduced
  tubular structures, VEGF control wells as 100%: 55.33±9.70
[4]
  safety and tolerability of the formulation in the eye: safe and well-tolerated
